Measured values: publication PMC6351562, “Structure, function, and inhibition of drug reactivating human gut microbial β-glucuronidases” (Scientific Reports, 2019)

What was measured:
[1] = system: GUS activity in faecal extracts; assay: pNPG processing assay in faecal extracts of DCF-treated mice; conditions: single dose DCF 60 mg/kg intraperitoneal, faeces 12 hours after, 1 mM pNPG, pH 7.4
E. coli GUS (EcGUS) = E. coli GUS (EcGUS) (Escherichia coli, UniProt P05804); conditions: pNPG as substrate; optimal pH 7.4; cited from earlier work
BdGUS (−)CBM Loop mutant = assay: pNPG processing by BdGUS (−)CBM Loop mutant; conditions: deletion of CBM loop of BdGUS; Fig. S13a
[2] = molecular target: T1, Lactobacillus rhamnosus GUS (LrGUS) (Lacticaseibacillus rhamnosus, UniProt A0A2A5L2J1); conditions: pNPG as substrate; optimal pH 4.5; 37 °C
T1 sequence (A0A2A5L2J1 1-603): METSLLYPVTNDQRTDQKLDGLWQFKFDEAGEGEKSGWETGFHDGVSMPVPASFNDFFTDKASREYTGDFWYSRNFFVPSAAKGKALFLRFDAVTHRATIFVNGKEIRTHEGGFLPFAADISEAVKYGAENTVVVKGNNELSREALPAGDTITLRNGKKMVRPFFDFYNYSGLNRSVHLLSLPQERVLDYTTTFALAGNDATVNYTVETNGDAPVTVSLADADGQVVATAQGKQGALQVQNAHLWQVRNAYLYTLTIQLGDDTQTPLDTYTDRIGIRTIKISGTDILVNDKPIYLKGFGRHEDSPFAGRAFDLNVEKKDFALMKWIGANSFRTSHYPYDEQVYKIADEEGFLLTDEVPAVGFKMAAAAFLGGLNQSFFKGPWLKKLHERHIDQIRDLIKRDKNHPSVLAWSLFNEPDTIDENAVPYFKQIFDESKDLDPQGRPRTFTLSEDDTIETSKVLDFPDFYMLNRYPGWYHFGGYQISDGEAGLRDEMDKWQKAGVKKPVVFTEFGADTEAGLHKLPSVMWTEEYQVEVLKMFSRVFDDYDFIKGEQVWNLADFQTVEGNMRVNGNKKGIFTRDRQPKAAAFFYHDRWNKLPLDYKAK

[3] = molecular target: T2, Faecalibacterium prausnitzii GUS (FpGUS) (Faecalibacterium duncaniae, UniProt C7H4D2); conditions: pNPG as substrate; optimal pH 6.0; 37 °C
T2 sequence (C7H4D2 1-608): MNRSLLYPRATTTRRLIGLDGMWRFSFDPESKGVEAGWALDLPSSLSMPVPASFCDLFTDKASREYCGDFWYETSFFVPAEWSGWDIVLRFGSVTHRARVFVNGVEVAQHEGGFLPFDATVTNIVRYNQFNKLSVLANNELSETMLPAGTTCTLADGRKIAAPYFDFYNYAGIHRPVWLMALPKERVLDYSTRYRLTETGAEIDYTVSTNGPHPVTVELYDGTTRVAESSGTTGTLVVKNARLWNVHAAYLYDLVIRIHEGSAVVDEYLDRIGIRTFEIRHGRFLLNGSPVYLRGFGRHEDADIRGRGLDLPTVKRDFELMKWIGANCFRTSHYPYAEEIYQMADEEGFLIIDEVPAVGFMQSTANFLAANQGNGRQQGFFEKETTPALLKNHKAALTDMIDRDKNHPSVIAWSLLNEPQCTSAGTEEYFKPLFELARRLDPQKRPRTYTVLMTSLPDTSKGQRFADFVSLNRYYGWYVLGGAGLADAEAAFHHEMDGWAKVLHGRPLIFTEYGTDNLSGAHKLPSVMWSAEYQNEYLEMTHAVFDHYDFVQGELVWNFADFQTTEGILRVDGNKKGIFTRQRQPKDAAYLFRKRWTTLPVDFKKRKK

[4] = molecular target: Clostridium perfringens GUS (CpGUS) (Clostridium perfringens, UniProt Q8VNV4); conditions: pH 6.5
EeGUS (−)EeLoop mutant = assay: pNPG processing by EeGUS (−)EeLoop mutant; conditions: deletion of residues M149 to A159 (Ee Extra Loop); Fig. S13c
[5] = molecular target: T3, Ruminococcus gnavus GUS (RgGUS) (Mediterraneibacter gnavus, UniProt A0A2N5PVZ8); type: biochemical; conditions: pNPG as substrate; optimal pH 6.5; apparent value estimated at low pNPG concentrations
T3 sequence (A0A2N5PVZ8 1-603): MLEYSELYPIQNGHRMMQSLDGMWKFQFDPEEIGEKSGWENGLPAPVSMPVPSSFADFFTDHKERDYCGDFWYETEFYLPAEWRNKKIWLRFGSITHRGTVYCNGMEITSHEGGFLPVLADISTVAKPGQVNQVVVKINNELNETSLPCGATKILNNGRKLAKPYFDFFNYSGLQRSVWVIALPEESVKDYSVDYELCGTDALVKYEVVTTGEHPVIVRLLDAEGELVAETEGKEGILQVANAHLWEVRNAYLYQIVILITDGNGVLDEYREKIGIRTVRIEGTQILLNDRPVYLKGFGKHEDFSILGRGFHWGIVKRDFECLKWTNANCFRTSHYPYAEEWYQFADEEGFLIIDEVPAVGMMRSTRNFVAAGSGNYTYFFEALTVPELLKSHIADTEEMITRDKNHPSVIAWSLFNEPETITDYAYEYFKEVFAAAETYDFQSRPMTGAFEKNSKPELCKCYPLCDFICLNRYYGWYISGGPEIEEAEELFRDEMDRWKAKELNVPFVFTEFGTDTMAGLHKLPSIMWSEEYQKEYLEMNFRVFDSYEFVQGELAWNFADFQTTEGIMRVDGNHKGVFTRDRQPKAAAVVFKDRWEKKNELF

E. coli GUS (EcGUS), sequence (P05804 whole entry): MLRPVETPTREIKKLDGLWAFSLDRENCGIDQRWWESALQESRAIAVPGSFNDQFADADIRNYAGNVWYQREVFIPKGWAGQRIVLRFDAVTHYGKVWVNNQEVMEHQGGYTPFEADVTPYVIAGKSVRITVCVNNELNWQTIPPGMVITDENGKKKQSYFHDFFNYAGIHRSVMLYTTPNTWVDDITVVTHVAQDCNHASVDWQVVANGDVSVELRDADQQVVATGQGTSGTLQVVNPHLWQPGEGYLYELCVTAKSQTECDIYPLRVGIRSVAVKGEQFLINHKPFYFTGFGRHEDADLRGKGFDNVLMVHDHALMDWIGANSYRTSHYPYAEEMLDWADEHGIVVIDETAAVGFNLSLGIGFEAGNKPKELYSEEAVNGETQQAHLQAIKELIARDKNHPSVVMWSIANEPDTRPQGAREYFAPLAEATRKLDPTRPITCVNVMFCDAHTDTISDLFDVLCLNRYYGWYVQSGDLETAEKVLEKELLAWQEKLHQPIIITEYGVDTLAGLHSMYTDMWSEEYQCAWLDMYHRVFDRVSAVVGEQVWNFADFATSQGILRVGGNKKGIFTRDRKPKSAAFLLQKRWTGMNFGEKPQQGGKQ

## O=C(O)Cc1ccccc1Nc1c(Cl)cccc1Cl [DCF, diclofenac]
[1]
  GUS activity (pNPG processing) in faecal extracts compared to pre-treatment levels: increases GUS activity

## O=C(O)[C@H]1O[C@@H](Oc2ccc([N+](=O)[O-])cc2)[C@H](O)[C@@H](O)[C@@H]1O [pNPG, p-nitrophenol-β-D-glucuronide]
E. coli GUS (EcGUS)
  Km: 130 ± 10 µM
  kcat (s^−1): 120 ± 10^a s^−1
BdGUS (−)CBM Loop mutant
  activity of mutant with pNPG (in words): inactive
[2]
  kcat: 10.0 s⁻¹
[3]
  kcat: 58 s⁻¹
[4]
  kcat: 57 s⁻¹
EeGUS (−)EeLoop mutant
  pNPG cleavage rate of mutant relative to WT: 9%
[5]
  kcat: 2.8 s⁻¹
